Key:
UM-SCC1 cells [1] = test: Radiation clonogenic survival, UM-SCC1; format: cell-based, human; conditions: erlotinib 0.1 μM for 3 days before irradiation, 3, 6, and 9 Gy (p<0.01)
Description: (§3) Survival following radiation exposure was defined as the ability of the cells to maintain their clonogenic capacity and to form colonies. Briefly, after exposure to radiation, cells were trypsinized, counted and seeded for colony formation in 35-mm dishes at 50-5000 cells/dish. After incubation intervals of 14-21 days, colonies were stained with crystal violet and manually counted. Colonies consisting of 50 cells or more were scored, and 5 replicate dishes containing 10-150 colonies/dish were counted for each treatment. Experiments were performed in duplicate.

H226 cells [2] = test: Apoptosis by caspase activity, H226; format: cell-based, human; conditions: erlotinib 1 μM combined with radiation 6 Gy
Description: (§1) Cells were seeded in 100-mm dishes at a density of 6×10^5 cells per plate and upon treatment, were harvested by trypsinization, centrifuged, and the cell pellet re-suspended to a final concentration of 2×10^6 cells/ml. Caspase activity was analyzed by fluorescence spectroscopy according to the manufacturer's protocol (Chemicon International). Briefly, the 300 μL of cells were incubated with 1× Fluorescein labeled pan-caspase inhibitor FAM-VAD-FMK (Ekert, P. G., et al. (1999) Cell Death Differ. 6(11):1081-6) at 37° C. for 1 hr in a humidified atmosphere of 5% CO2. Cells were then washed twice with wash buffer, finally resuspended in 320 μL PBS. A 100 μL aliquot of the cell suspension was transferred to a black 96-well plate in triplicate. Fluorescence was analyzed on a SpectraMax fluorescence plate reader at 550 nm excitation and 600 nm emission wavelengths.

UM-SCC6 xenografts = test: Tumor growth in athymic nude mice, UM-SCC6 xenografts
Description: (§4) Erlotinib was administered by oral gavage once daily for 3 weeks. Radiation treatment was delivered twice a week for 3 weeks using custom mouse jigs designed to expose only the tumor bed to radiation.
(§5) Combination studies determining apoptosis induction were evaluated using Student's t test with the resultant P value representing a two-sided test of statistical significance.

UM-SCC1 cells [3] = test: PARP cleavage by western blot, UM-SCC1; format: cell-based, human
Description: (§2) Following treatment, cells were lysed with RIPA buffer and sonicated in complete proteinase inhibitor cocktail (Roche) and sodium orthovanadate. Fifteen μg of protein extracts were mixed with SDS sample buffer and electrophoresed onto a 10% SDS-polyacrylamide gel under reducing conditions. The separated proteins were transferred onto nitrocellulose membranes (Amersham Pharmacia Biotech, Piscataway, N.J.). The membrane was incubated for 1 hour in blocking buffer (Tris-buffered saline with 0.1% Tween (TBS-T) and 5% nonfat dry milk). The membranes were then incubated with specific primary antibodies. After washing three times with TBS-T buffer, the membrane was incubated with horseradish peroxidase-linked secondary antibody (Amersham Pharmacia Biotech, Piscataway, N.J.) at 1:5000 dilution for 1 hour at room temperature. The signals were visualized with the ECL+ detection system and autoradiography.

UM-SCC6 cells [4] = test: Apoptosis by caspase activity, UM-SCC6; format: cell-based, human; conditions: erlotinib 1 μM combined with radiation 6 Gy, p<0.05
Description: as §1

UM-SCC1 cells [5] = test: Apoptosis by caspase activity, UM-SCC1; format: cell-based, human; conditions: erlotinib 1 μM combined with radiation 6 Gy
Description: as §1

Rad51 = test: Radiation-induced Rad51 expression, immunoblot; format: cell-based, human; conditions: pretreated with 1 μM erlotinib for 24 hrs; H226 and UM-SCC6; 6 Gy
Description: as §2

UM-SCC6 cells [6] = test: PARP cleavage by western blot, UM-SCC6; format: cell-based, human; conditions: erlotinib/radiation combination, data not shown
PCNA = test: Immunohistochemical determination of PCNA in H226 xenografts; format: in vivo, athymic mice
[7] = tested on: Egr-1, CXCL1, and IL-1β expression; test: Validation of gene expression by quantitative RT-PCR and western blot; format: cell-based, human; conditions: UM-SCC6; erlotinib 1.0 μM x 24 hrs pretreatment, 6 Gy
Description: as §2
To further validate the microarray findings, we performed quantitative real-time PCR (QPCR) using the SYBR green dye as previously described (Kleer, C. G., et al. (2003) Proc. Natl. Acad. Sci. USA 100(20):11606-11611). Briefly, 1 μg of total RNA isolated from each sample was reverse transcribed into first strand cDNA. Threshold levels were set for each experiment during the exponential phase of the PCR reaction using the SDS v 1.7 software (Applied Biosystems), and the quantity of DNA in each sample was calculated by interpolating its Ct value versus a standard curve of Ct values obtained from serially diluted cDNA from a mixture of all of the samples using Microsoft Excel. All standard curves had R2 values ≧0.99 over three orders of magnitude. The calculated quantity of the target gene for each sample was then divided by the average calculated quantity of the housekeeping genes glyceraldehyde-3 phosphate dehydrogenase (GAPD) and hydroxymethylbilane synthase (HMBS) corresponding to each sample to give a relative expression of the target gene for each sample. All oligonucleotide primers were synthesized by Integrated DNA Technologies. […]

H226 xenografts = test: Tumor growth in athymic nude mice, H226 xenografts
Description: as §4, §5

refractory NSCLC = refractory NSCLC patients receiving erlotinib; cited from earlier work
[8] = tested on: UM-SCC6 and H226 cell lines; test: Cell cycle analysis by flow cytometry (propidium iodide); format: cell-based, human
Description: Cells were harvested after 72 hours exposure of erlotinib, 24 hours exposure to 6 Gy radiation, or in combination. […] After removal of ethanol by centrifugation, cells were then incubated with phosphate-citric acid buffer [0.2 M Na2HPO4 (pH 7.8), and 4 mM citric acid] at room temperature for 45 min. After centrifugation, cells were then stained with a solution containing 33 μg/ml PI (propidium iodide), 0.13 mg/ml RNase A, 10 mM EDTA, and 0.5% Triton X-100 at 4° C. for 24 hours. Stained nuclei were analyzed for DNA-PI fluorescence using a Becton Dickinson FACScan flow cytometer. Resulting DNA distributions were analyzed by Modfit (Verity Software House, Inc., Topsham, Me.) for the proportion of cells in sub-G0, G1, S, and G2-M phases of the cell cycle.

[9] = tested on: HNSCC and NSCLC cell lines; test: Apoptosis by fluorescein labeled caspase inhibitor (caspase activity), cell lines pooled; format: cell-based, human; conditions: erlotinib alone 1 μM x 48 hrs
Description: as §1

H226 cells [10] = test: Radiation clonogenic survival, H226; format: cell-based, human; conditions: erlotinib 0.1 μM for 3 days before irradiation, 6 and 9 Gy (p<0.05)
Description: as §3

[11] = erlotinib alone 0.8 mg daily oral gavage, 3 weeks
[12] = erlotinib combined with radiation (2 Gy twice per week), 55-day observation, p<0.05

Structure (SMILES): C#Cc1cccc(Nc2ncnc3cc(OCCOC)c(OCCOC)cc23)c1 [erlotinib, [6,7-bis(2-methoxyethoxy)-4-quinazolin-4-yl]-(3-ethynylphenyl) amine]
- radiosensitization (reduction in clonogenic survival) (UM-SCC1 cells [1]): modest but consistent radiosensitization
- increase in apoptosis, combined treatment (H226 cells [2]): additive increase in apoptosis
- tumor growth (UM-SCC6 xenografts; [11]): modest inhibition of tumor growth
- tumor growth inhibition, nature of combination effect (UM-SCC6 xenografts; [12]): additive
- PARP cleavage (UM-SCC1 cells [3]; erlotinib 1 μM combined with radiation 6 Gy, UM-SCC1): Further increase in PARP cleavage
- PARP cleavage (UM-SCC1 cells [3]; erlotinib alone 1 μM, 10 and 24 hours following treatment): modest PARP cleavage
- increase in apoptosis induction, combined treatment (UM-SCC6 cells [4]): supra-additive increase in apoptosis induction
- increase in apoptosis, combined treatment (UM-SCC1 cells [5]): additive increase in apoptosis
- radiation-induced increase in Rad51 expression (Rad51): attenuated significantly
- enhancement in PARP cleavage (UM-SCC6 cells [6]): even more pronounced
- number of proliferating cells (PCNA staining) (PCNA; combined erlotinib/radiation): smallest
- number of proliferating cells (PCNA staining) (PCNA; erlotinib alone): intermediate
- radiation-induced enhancement of CXCL1 expression [7]: inhibited
- radiation-induced enhancement of Egr-1 expression [7]: inhibited
- radiation-induced enhancement of IL-1β expression [7]: inhibited
- tumor growth (H226 xenografts; [11]): modest inhibition of tumor growth
- tumor growth inhibition, nature of combination effect (H226 xenografts; [12]): synergistic
- survival (refractory NSCLC): survival extension
- S phase fraction ([8]; erlotinib (0.1 μM) combined with radiation (6 Gy)): further reduction in the S phase fraction
- cell cycle phase distribution, G1 ([8]; erlotinib alone (0.1 μM)): accumulation of cells in G1
- number of cells in S phase ([8]; erlotinib alone (0.1 μM)): reduced the number of cells in S phase
- increase in apoptosis as determined by caspase activity [9]: 10-25%
- radiosensitization (reduction in clonogenic survival) (H226 cells [10]): modest but consistent radiosensitization
